From patent publication US9732131B2, “Identification and use of novopeptides for the treatment of cancer” (Calviri Inc., priority 2006, dated 2017)

What was measured:
[1] = system: serum antibodies of cancer patients; test: ELISA of cancer patient serum for reactivity with novopeptide; type: binding, human; conditions: serum from 23 cancer patients, standard ELISA (FIG. 8)
Excerpt: Disclosed herein are embodiments of methods for performing novopeptide immunological screens. For example, disclosed herein are embodiments of methods for immunologically screening for the existence of a B cell response to a particular novopeptide comprising assaying for the presence of antibodies reactive to that novopeptide in serum samples from individuals having a type of cancerous cells predicted to express the novopeptide, and for the absence, or presence below a prespecified titer, of such reactive antibodies in serum obtained from one or more individuals not having such cancer. The presence in sera of antibodies reactive to a given novopeptide may be detected and quantified by an ELISA assay in which the novopeptide is adsorbed onto a solid surface, serum is applied, and antibodies remaining bound to the novopeptides after washing are detected. […] However, in at least some individuals, a strong immune response develops late in the tumor progression process. Therefore, serum antibody reactivity to a candidate novopeptide, even if detected in the serum of only one or a few individuals having the cancer type in question, is strong evidence that the novopeptide is expressed in that cancer type.
Novopeptides in the FS database in association with particular tumor cell types were identified. […]

SW480 tumor cells = test: CTL assay (Cr release) with CTLs activated against novopeptide; type: cell-based, human; conditions: MHC-matched SW480 cells pulsed with peptide vs unpulsed (FIG. 9)
Excerpt: These CTL's may then be tested for reactivity against each of (1) cancerous cells, and (2) non-cancerous cells, each having an MHC or HLA type matching that of the MHC or HLA for which the CTL's are specific.
This is a standard Cr release assay that anyone skilled in the art would be able to do.

[2] = system: breast tumor driven by mutant rat Her2 gene; test: Prophylactic immunization in BALB-neuT transgenic breast cancer model; type: in vivo; conditions: BALB-neuT mice, genetic prime/boost + KLH-peptide boost; vs non-treated and negative control (FIGS. 13a, 13b)
Excerpt: From the candidate FS peptide sequences disclosed in Table 8 two candidates were selected for in vivo confirmation. The candidates chosen will be referred to herein as FS RBM (SEQ ID NO:232) and FS THAP2 (SEQ ID NO:238), these novopeptides having upstream in-frame portions that align with the mouse Rbm14 and Thap2 genes, respectively. […] The BALB-neuT mouse model is a transgenic mouse breast cancer model, in which all ten mammary glands of a female mouse will develop breast tumor around 20 weeks of age, driven by overexpression of a mutant rat Her2 gene.
FS RBM and FS THAP2 peptides were tested in vivo as candidate peptide components of a prophylactic anti-cancer vaccine. BALB-neuT mice were immunized at 4 to 6 weeks old (primary genetic immunization); 8 to 10 weeks old (boost genetic immunization) and 12 to 14 weeks old (boost peptide immunization). All genetic immunization had the same genetic adjuvant for each bullet for gene gun immunization: 250 ng mixed LTA-LTB/pCMVi and 2.5 μgCpG 2216. All mice received two shots at each ear by gene gun for each genetic immunization. At primary immunization, the vaccine group got two shots of bullets containing 100 ng (high dosage) or 20 ng (low dosage) mixed FS antigen plasmids per bullet; while negative group got two shots of 100 ng mixed empty plasmids for each shot. […]

[3] = system: B16 F10 melanoma tumor cells; test: Prophylactic genetic immunization (gene gun LEE + pGM-CSF), B16 F10 melanoma challenge; type: in vivo, C57BL6 mice
4T1 breast tumor cells = test: Prophylactic genetic immunization, 4T1 breast tumor challenge; type: in vivo; conditions: Balb/c mice, 3.2 ng FS 1-78 LEE + 1 μg pGM-CSF, boost, challenge 1×10^4 4T1 cells; vs pGM-CSF alone and FS 6-21 controls (FIG. 5)
Excerpt: Immunization with a single FS-novopeptide identified based on one tumor type may be immunoprotective against a different tumor type in a different mouse strain. Disclosed herein is a procedure for such immunization. Immunization with novopeptides common to multiple types of tumors can result in cross-protection, obviating the requirement that a patient must develop a tumor before a personalized vaccine can be formulated, prepared and administered. Balb/c mice were immunized in the same manner as the C57BL6 mice in Example 2 above, with 3.2 ng of FS 1-78 LEE+1 μg of pGM-CSF, and boosted with the same gene vaccine after 2 weeks. One week after the boost, mice were challenged with 1×10^4 4 T1 breast tumor cells. Seventeen days after 4T1 challenge, tumors started to grow.

B16 melanoma line = test: Therapeutic gene vaccine encoding SMC1A FS, B16 melanoma mouse tumor model; type: in vivo, mice; conditions: B16 inoculated, gene vaccine one day later
Method: The FS was tested for therapeutic value as a vaccine in the mouse tumor model. The B16 melanoma line was inoculated into mice. One day later the mice were vaccinated with a gene vaccine encoding the FS.

4T1 tumor cells = test: Prophylactic genetic immunization, BALB/C-4T1 mouse transplant breast tumor model; type: in vivo; conditions: three peptide components given together by genetic immunization at 7 and 13 weeks; challenge 5,000 4T1 cells; vs empty vector (FIG. 15)
Method: Primary genetic immunization was administered with the three peptide components (10 mice) or with empty vector (negative controls, 4 mice) at 7 weeks old and 13 weeks old. Three weeks after the last immunization, all mice were challenged with 5,000 4T1 tumor cells. Tumor size was measured each day after palpable tumors appeared. […] Error bars show standard error.

“AVLLMCQLYQpwmckeyyrll* (AVLLMCQLYQPWMCKEYYRLL; Synthetic or recombinant sequence) [FS 6-21, frameshift novopeptide, 95 bp deletion]” was tested, and the “antibody reactivity in sera of cancer patients” value [1] was “one cancer patient in 23” and the “CTL killing of tumor cells” value (SW480 tumor cells) was “able to kill MHC-matched tumor cells pulsed with FS 6-21 peptide”.
In the case of “FS RBM: mouse novopeptide whose upstream in-frame portion aligns with the mouse Rbm14 gene (GRVIECDVVKGSCQDGEAVHWKSAPGGHRAGDPLTLRAVREGAGM; Synthetic or recombinant sequence)”, the “inhibition of first tumor onset and tumor progression” value [2] is reported as “significant prophylactic protection”.
In the case of “FS THAP2: mouse novopeptide whose upstream in-frame portion aligns with the mouse Thap2 gene (FDFCTHIKSLVTFGLFLRGAGCSPSSFLL; Synthetic or recombinant sequence)”, the “inhibition of first tumor onset and tumor progression” value [2] is reported as “significant prophylactic protection”.
“IPRMQPQASAnhcqllkvmva* (LLMCQCQLYQPWMCKEYYRLL; Synthetic or recombinant peptide) [FS 1-78, frameshift novopeptide from B16-F10, 396 bp deletion in a zinc finger protein gene]” was tested, and the tumor growth ([3]; C57BL6 mice, gene gun FS 1-78 LEE + 1 μg pGM-CSF, boost 2 weeks later, challenge 1×10^5 B16 F10 cells, vs empty LEE and no immunization (FIG. 4)) was “tumor growth was markedly delayed”, the tumor volume ([3]; highest dose (3.2 ng) of FS 1-78 LEE (FIG. 4)) was “tumor volume decreased after the already delayed rise” and the 4T1 tumor growth (4T1 breast tumor cells) was “significantly delayed and reduced 4T1 tumor growth”.
“NGSGCSGVYCHEEPQGEDSSV [FS SMC-1A, novopeptide from a frameshift of the SMC1A gene]” was tested, and the “therapeutic effect on tumor size progression” value (B16 melanoma line; relative to control (FIG. 12a)) was “no therapeutic effect on tumor size progression” and the survival time (B16 melanoma line; relative to control (FIG. 12b)) was “did not show significant improvement in survival time”.
For “SEQ ID NO: 310: first peptide of Table 9, frameshift predicted from mouse microsatellite locus (TLCMEVMLRWNTRELGYLYLQLCFLNTHFLHTSQEEKLLTLGRFLTWTSRCGSFVIRPL; Synthetic or recombinant sequence)”, the “prophylactic inhibition of tumor progression (tumor size)” value (“prophylactic inhibition” below) (4T1 tumor cells) was “effective in prophylactically inhibiting tumor progression”.
For “SEQ ID NO: 311: second peptide of Table 9, frameshift predicted from mouse microsatellite locus (ICMSPPLLWATLQAPETTSAACKASYRPEGLYL; Synthetic or recombinant sequence)”, the “prophylactic inhibition” value (4T1 tumor cells) was “effective in prophylactically inhibiting tumor progression”.
In the case of “SEQ ID NO: 312: third peptide of Table 9, frameshift predicted from mouse microsatellite locus (YFSCDKRCIKHYAGNKSLLTFSGY; Synthetic or recombinant sequence)”, the “prophylactic inhibition” value (4T1 tumor cells) is reported as “effective in prophylactically inhibiting tumor progression”.
